Measurements: patent publication US10023536B2, “Suprametallogels and uses thereof” (Massachusetts Institute of Technology, priority 2014, dated 2018)

System: HeLa cells
Assay: Cytotoxicity of the gel components against HeLa cells (MILLIQ water as control)
Assay type: cell-based
Conditions: components of the gel tested separately
Experimental: FIG. 27: cytotoxicities of (1) a gel formed from C-2 and Fe^2+ (“gel”), (2) PEG, and (3) Fe^2+ (“Fe”) against HeLa cells. MILLIQ water (“milliQ”) used as a control.
Because C-2 forms gels with Fe^2+ salts, which are biocompatible, these gels may have applications as therapeutic devices. First, the cytotoxicity of these gels was tested on HeLa cells to determine the effect of the components of the gels on cell viability. Due to the difficulty in assessing the toxicity of gel materials, the components of the gels were tested separately.

## iron
  cytotoxicity compared to MILLIQ water: little cytotoxicity
